For assay [1], the target named is Human indoleamine 2,3-dioxygenasae (IDO) (Homo sapiens (Human), UniProt P14902). In words: Human indoleamine 2,3-dioxygenasae (IDO) enzyme assay. It counts as biochemical. The text has this:
Human indoleamine 2,3-dioxygenasae (IDO) enzyme assay: Human indoleamine 2,3-dioxygenasae (IDO) with an N-terminal His tag was expressed in E. coli and purified to homogeneity. IDO catalyzes the oxidative cleavage of the pyrrole ring of the indole nucleus of tryptophan to yield N′-formylkynurenine.
IC50 data are from the IDO enzyme assay described above.

Assay [2] relates to B16-SIY cells. In words: Tumor growth inhibition (TGI), unaffected fraction synergy analysis of combination therapies. The format is in vivo, mice. On the procedure:
Treatment was initiated on day 4 post tumor inoculation with the following regimens for each drug. αCTLA-4 antibody (clone UC10-4F10-11, Bio-X-Cell) was given i.p. on day 4, 7 and 10 at a dose of 100 μg/mouse. αPD-L1 antibody (clone 10F.9G2, Bio-X-Cell) was given i.p. (100 μg/mouse) every other day starting on day 4 ending on day 16 post tumor inoculation. IDOi (INCB23843, Incyte Corporation) was dissolved in 0.5% methylcellulose and administered at 300 mg/kg po QD on a 5 days on/2 days off schedule starting on day 4. In the case of functional experiments with an earlier endpoint, treatment regimens were carried out as described until the day of T cell analysis. A comparison between IDOi and IDOc (INCB24360, Incyte Corporation) was perfomed according to the treatment regime described above. Tumor outgrowth was followed starting day 7 onwards and is depicted in combination with anti-CTLA4 (FIG. 18A) or anti-PD-L1 (FIG. 18B). N=5 mice per group, and a two-way Anova test was used to determine significance between the groups.
Treatment was administered in the same fashion as described for FIG. 9, with the exception that IDOi (INCB23843) was replaced by IDOc (INCB24360) in the indicated groups. […] Synergy analysis was performed with day 15 data and with day 23 data. Actual tumor growth inhibition (TGI) is the experimental TGI seen in this experiment for the combinations, and predicted TGI is the TGI that would have been expected for a purely additive combination effect from the performance of the individual agents in this experiment. Actual TGIs higher than predicted TGIs reflect better than additive (synergistic) data.

The structures appear in SMILES notation. Read-outs that look alike come from different tables or passages of the source.

Chain of Human indoleamine 2,3-dioxygenasae (IDO) (P14902 whole entry): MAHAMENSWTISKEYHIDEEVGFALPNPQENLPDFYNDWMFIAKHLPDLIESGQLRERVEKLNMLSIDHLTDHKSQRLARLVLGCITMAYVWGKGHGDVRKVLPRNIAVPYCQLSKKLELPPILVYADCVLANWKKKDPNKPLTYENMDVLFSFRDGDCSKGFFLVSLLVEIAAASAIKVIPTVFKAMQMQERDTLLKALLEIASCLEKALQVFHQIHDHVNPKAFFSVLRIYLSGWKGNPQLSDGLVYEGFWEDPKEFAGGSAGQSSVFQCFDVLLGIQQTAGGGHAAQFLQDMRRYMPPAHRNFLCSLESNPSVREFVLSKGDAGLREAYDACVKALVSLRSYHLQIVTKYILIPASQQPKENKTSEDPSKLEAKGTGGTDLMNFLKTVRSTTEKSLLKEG

`NS(=O)(=O)NCCCNc1nonc1C(=NO)Nc1cccc(C(F)(F)F)c1` [Example 15, 4-({3-[(Aminosulfonyl)amino]propyl}amino)-N′-hydroxy-N-[3-(trifluoromethyl)phenyl]-1,2,5-oxadiazole-3-carboximidamide]: the IC50 in assay [1] (read-out: IDO IC50) was less than 200 nM.
Still for that read-out and setting: the result for `CS(=O)(=O)NCCCNc1nonc1C(=NO)Nc1ccc(F)c(Cl)c1` [Example 8, N-(3-Chloro-4-fluorophenyl)-N′-hydroxy-4-({3-[(methylsulfonyl)amino]propyl}amino)-1,2,5-oxadiazole-3-carboximidamide] reads less than 200 nM; that for `N#Cc1cc(NC(=NO)c2nonc2NCCNS(N)(=O)=O)ccc1F` [Example 18, 4-({2-[(Aminosulfonyl)amino]ethyl}amino)-N-(3-cyano-4-fluorophenyl)-N′-hydroxy-1,2,5-oxadiazole-3-carboximidamide], less than 750 nM; that for `NS(=O)(=O)NCCNc1nonc1C(=NO)Nc1cccc(C(F)(F)F)c1` [Example 13, 4-({2-[(Aminosulfonyl)amino]ethyl}amino)-N′-hydroxy-N-[3-(trifluoromethyl)phenyl]-1,2,5-oxadiazole-3-carboximidamide], less than 500 nM.
As for `NS(=O)(=O)NCCCNc1nonc1C(=NO)Nc1ccc(F)c(C(F)(F)F)c1` [Example 11, 4-({3-[(Aminosulfonyl)amino]propyl}amino)-N-[4-fluoro-3-(trifluoromethyl)phenyl]-N′-hydroxy-1,2,5-oxadiazole-3-carboximidamide], the IC50 in assay [1] (read-out: IDO IC50) is less than 100 nM.
The same measure, in the same setting: with `CS(=O)(=O)NCCNc1nonc1C(=NO)Nc1cccc(C(F)(F)F)c1` [Example 14, N′-Hydroxy-4-({2-[(methylsulfonyl)amino]ethyl}amino)-N-[3-(trifluoromethyl)phenyl]-1,2,5-oxadiazole-3-carboximidamide] the figure was less than 200 nM; with `CS(=O)(=O)NCCCNc1nonc1C(=NO)Nc1cccc(C(F)(F)F)c1` [Example 16, N′-Hydroxy-4-({3-[(methylsulfonyl)amino]propyl}amino)-N-[3-(trifluoromethyl)phenyl]-1,2,5-oxadiazole-3-carboximidamide], less than 200 nM; with `NS(=O)(=O)NCCNc1nonc1C(=NO)NCc1cc(Cl)co1` [Example 21, 4-({2-[(Aminosulfonyl)amino]ethyl}amino)-N-[(4-chloro-2-furyl)methyl]-N′-hydroxy-1,2,5-oxadiazole-3-carboximidamide], less than 750 nM.
Same read-out and setting: with `NS(=O)(=O)NCCCNc1nonc1C(=NO)Nc1ccc(F)c(Br)c1` [Example 3, 4-({3-[(Aminosulfonyl)amino]propyl}amino)-N-(3-bromo-4-fluorophenyl)-N′-hydroxy-1,2,5-oxadiazole-3-carboximidamide] the figure was less than 100 nM.
Consider `CS(=O)(=O)NCCNc1nonc1C(=NO)Nc1ccc(F)c(C(F)(F)F)c1` [Example 10, N-[4-Fluoro-3-(trifluoromethyl)phenyl]-N′-hydroxy-4-({2-[(methylsulfonyl)amino]ethyl}amino)-1,2,5-oxadiazole-3-carboximidamide], for which the IC50 in assay [1] (read-out: IDO IC50) was less than 100 nM.
Still for that read-out and setting: with `Cc1cc(NC(=NO)c2nonc2NCCNS(C)(=O)=O)ccc1F` [Example 17, N-(4-Fluoro-3-methylphenyl)-N′-hydroxy-4-({2-[(methylsulfonyl)amino]ethyl}amino)-1,2,5-oxadiazole-3-carboximidamide] the figure was less than 500 nM.
In the case of `CN(CCNc1nonc1/C(=N/O)Nc1ccc(F)c(Cl)c1)S(N)(=O)=O` [Example 24, 4-(2-[(Aminosulfonyl)(methyl)amino]ethylamino)-N-(3-chloro-4-fluorophenyl)-N′-hydroxy-1,2,5-oxadiazole-3-carboximidamide], the concentration for half-maximal inhibition (IC50) is 132 nM in assay [1] (average of five lots, read-out: IC50) and less than 200 nM in assay [1] (read-out: IDO IC50).
For the compound `CS(=O)(=O)NCCCNc1nonc1C(=NO)Nc1ccc(F)c(Br)c1` [Example 4, N-(3-Bromo-4-fluorophenyl)-N′-hydroxy-4-({3-[(methylsulfonyl)amino]propyl}amino)-1,2,5-oxadiazole-3-carboximidamide], the 50% inhibitory concentration (IC50) in assay [1] (read-out: IDO IC50) was less than 100 nM.
The same measure, in the same setting: the result for `NS(=O)(=O)NCCNc1nonc1C(=NO)Nc1ccc(F)c(C(F)(F)F)c1` [Example 9, 4-({2-[(Aminosulfonyl)amino]ethyl}amino)-N-[4-fluoro-3-(trifluoromethyl)phenyl]-N′-hydroxy-1,2,5-oxadiazole-3-carboximidamide] reads less than 100 nM; that for `NS(=O)(=O)NCCNc1nonc1C(=NO)Nc1ccc(F)c(Cl)c1` [Example 5, 4-({2-[(Aminosulfonyl)amino]ethyl}amino)-N-(3-chloro-4-fluorophenyl)-N′-hydroxy-1,2,5-oxadiazole-3-carboximidamide], less than 200 nM.
On the same count and under the same terms, the result for `CS(=O)(=O)NCCCNc1nonc1C(=NO)Nc1ccc(F)c(C(F)(F)F)c1` [Example 12, N-[4-Fluoro-3-(trifluoromethyl)phenyl]-N′-hydroxy-4-({3-[(methylsulfonyl)amino]propyl}amino)-1,2,5-oxadiazole-3-carboximidamide] reads less than 100 nM.
In the case of `CS(=O)(=O)NCCNc1nonc1C(=NO)Nc1ccc(F)c(C#N)c1` [Example 19, N-(3-Cyano-4-fluorophenyl)-N′-hydroxy-4-({2-[(methylsulfonyl)amino]ethyl}amino)-1,2,5-oxadiazole-3-carboximidamide], the IC50 in assay [1] (read-out: IDO IC50) was less than 500 nM.
On the same count and under the same terms, with `NS(=O)(=O)NCCNc1nonc1C(=NO)NCc1cc(Br)co1` [Example 20, 4-({2-[(Aminosulfonyl)amino]ethyl}amino)-N-[(4-bromo-2-furyl)methyl]-N′-hydroxy-1,2,5-oxadiazole-3-carboximidamide] the figure was less than 500 nM; with `CS(=O)(=O)NCCNc1nonc1C(=NO)Nc1ccc(F)c(Cl)c1` [Example 6, N-(3-Chloro-4-fluorophenyl)-N′-hydroxy-4-({2-[(methylsulfonyl)amino]ethyl}amino)-1,2,5-oxadiazole-3-carboximidamide], less than 200 nM.
For `NS(=O)(=O)NCCNc1nonc1/C(=N/O)Nc1ccc(F)c(Br)c1` [IDOc], the “Actual TGI” value in assay [2] (Day 15 (end of dosing), combination with anti CTLA4) worked out at 74%; in assay [2] (Day 15 (end of dosing), combination with antiPDL1), 81%; in assay [2] (Day 23 (last day of vehicles), combination with anti CTLA4) it was 93%; in assay [2] (Day 23 (last day of vehicles), combination with antiPDL1), 82%. The “Predicted TGI” value in assay [2] (Day 15, combination with anti CTLA4, expected for a purely additive effect from the individual agents) was 66%; in assay [2] (Day 15, combination with antiPDL1, expected for a purely additive effect) it was 24%; in assay [2] (Day 23, combination with anti CTLA4, expected for a purely additive effect) it was 65%; in assay [2] (Day 23, combination with antiPDL1, expected for a purely additive effect), 35%.
For the compound `NS(=O)(=O)NCCCNc1nonc1C(=NO)Nc1ccc(F)c(Cl)c1` [Example 7, 4-({3-[(Aminosulfonyl)amino]propyl}amino)-N-(3-chloro-4-fluorophenyl)-N′-hydroxy-1,2,5-oxadiazole-3-carboximidamide], in assay [1] (read-out: IDO IC50), the 50% inhibitory concentration (IC50) was less than 200 nM.

For orientation: IC50 means the concentration that gives 50% inhibition.

(Values after patent US10034939B2, “Synergistic combination of immunologic inhibitors for the treatment of cancer” (The University of Chicago, priority 2012, dated 2018).)
